This passage reports IC50 results from BindingDB's records for doi:10.1021/jm970569j (Seoul National University, 1998).

pIC50: −log10 of the molar value. Bounds are passed on as bounds.

For this assay, the target named is Platelet-activating factor receptor (Oryctolagus cuniculus). Put plainly: In vitro inhibitory activity against PAF receptor using [3H]PAF as radioligand in rabbit platelets.
Usually pIC50 stands for −log10 of the IC50, conventionally taken in molar units. A low value points to a large IC50. Molecule `C=C1CCC2[C@](C)(CCC[C@]2(C)C(=O)OC)[C@H]1CCC1=CCOC1=O` (stereo partly drawn) [(1S,4aR,5S)-1,4a-Dimethyl-6-methylene-5-[2-(2-oxo-2,5-dihydro-furan-3-yl)-ethyl]-decahydro-naphthalene-1-carboxylic acid methyl ester] had a negative-log IC50 (pIC50) of 6.60.
For `C=C1CCC2[C@@](C)(CO)CCC[C@]2(C)[C@H]1CCC1=CC(=O)OC1` (stereo partly drawn) [4-[2-((1S,5S,8aR)-5-Hydroxymethyl-5,8a-dimethyl-2-methylene-decahydro-naphthalen-1-yl)-ethyl]-5H-furan-2-one], the negative logarithm of the IC50 (pIC50) is 3.96.
For `COC(=O)[C@@]1(C)CCC[C@@]2(C)C1CC[C@]1(CO1)[C@@H]2CCC1=CCOC1=O` (stereo partly specified) [methyl 5,8a-dimethyl-1-[2-(2-oxo-2,5-dihydro-3-furanyl)ethyl]spiro[perhydronaphthalene-2,2'-(dihydrooxirane)]-5-carboxylate] the value was 6.00.
For `C=C1CCC2[C@@](C)(CO)CCC[C@]2(C)[C@H]1CCC1=CCOC1=O` (stereo partly drawn) [3-[2-((1S,5S,8aR)-5-Hydroxymethyl-5,8a-dimethyl-2-methylene-decahydro-naphthalen-1-yl)-ethyl]-5H-furan-2-one], the negative logarithm of the IC50 (pIC50) is 4.52.
`COC(=O)[C@@]1(C)CCC[C@@]2(C)C1CC[C@H](CO)[C@@H]2CCC1=CCOC1=O` (stereo partly drawn) [(1S,4aR,5S,6S)-6-Hydroxymethyl-1,4a-dimethyl-5-[2-(2-oxo-2,5-dihydro-furan-3-yl)-ethyl]-decahydro-naphthalene-1-carboxylic acid methyl ester]: the pIC50 was 5.80. This pIC50 lies 1.28 log units higher than the previous one.
With `C=C1CCC2[C@@](C)(COC)CCC[C@]2(C)[C@H]1CCC1=CCOC1=O` (stereo partly drawn) [3-[2-((1S,5S,8aR)-5-Methoxymethyl-5,8a-dimethyl-2-methylene-decahydro-naphthalen-1-yl)-ethyl]-5H-furan-2-one], the negative-log IC50 (pIC50) was 5.77.
For `C=C1CCC2[C@@](C)(CO)CCC[C@]2(C)[C@H]1CC/C(=C/CO)CO` (stereo partly drawn) [(Z)-2-[2-((1S,5S,8aR)-5-Hydroxymethyl-5,8a-dimethyl-2-methylene-decahydro-naphthalen-1-yl)-ethyl]-but-2-ene-1,4-diol] the value was 4.68; for `C=C1CCC2[C@](C)(CCC[C@]2(C)C(=O)OC)[C@H]1CCC1=CC(=O)OC1` (stereo partly drawn) [(1S,4aR,5S)-1,4a-Dimethyl-6-methylene-5-[2-(5-oxo-2,5-dihydro-furan-3-yl)-ethyl]-decahydro-naphthalene-1-carboxylic acid methyl ester], 5.22.
For `COC(=O)[C@@]1(C)CCC[C@@]2(C)C1CC[C@H](O)[C@@H]2CCC1=CCOC1=O` (stereo partly drawn) [(1S,4aS,5R,6S)-6-Hydroxy-1,4a-dimethyl-5-[2-(2-oxo-2,5-dihydro-furan-3-yl)-ethyl]-decahydro-naphthalene-1-carboxylic acid methyl ester] the value was 5.70.
The value for `C=C1CCC2[C@](C)(CCC[C@]2(C)C(=O)OC)[C@H]1CCc1ccoc1` (stereo partly drawn) [(1S,4aR,5S)-5-(2-Furan-3-yl-ethyl)-1,4a-dimethyl-6-methylene-decahydro-naphthalene-1-carboxylic acid methyl ester] was below 3.00; that for `COC(=O)[C@@]1(C)CCC[C@@]2(C)C1CC[C@](O)(CO)[C@@H]2CCC1=CCOC1=O` (stereo partly drawn) [(1S,4aS,5R,6R)-6-Hydroxy-6-hydroxymethyl-1,4a-dimethyl-5-[2-(2-oxo-2,5-dihydro-furan-3-yl)-ethyl]-decahydro-naphthalene-1-carboxylic acid methyl ester] was below 3.00.
For the molecule `C=C1CCC2[C@](C)(CCC[C@]2(C)C(=O)OC)[C@H]1CC/C(=C/CO)CO` (stereo partly drawn) [(1S,4aR,5S)-5-((Z)-5-Hydroxy-3-hydroxymethyl-pent-3-enyl)-1,4a-dimethyl-6-methylene-decahydro-naphthalene-1-carboxylic acid methyl ester], the pIC50 is 4.92.
On to `C=C1CCC2[C@](C)(CCC[C@]2(C)C(=O)OC)[C@H]1CCC1CCOC1=O` (stereo partly drawn) [(1S,4aR,5S)-1,4a-Dimethyl-6-methylene-5-[2-(2-oxo-tetrahydro-furan-3-yl)-ethyl]-decahydro-naphthalene-1-carboxylic acid methyl ester], for which the negative logarithm of the IC50 (pIC50) was 5.70.
With `COC(=O)[C@@]1(C)CCC[C@@]2(C)C1CCC(C)[C@@H]2CCC1CCOC1=O` (stereo partly drawn) [(1S,4aR,5S)-1,4a,6-Trimethyl-5-[2-(2-oxo-tetrahydro-furan-3-yl)-ethyl]-decahydro-naphthalene-1-carboxylic acid methyl ester], the pIC50 is 5.32.
For `COC(=O)[C@@]1(C)CCC[C@@]2(C)C1CCC(=O)[C@@H]2CCC1CCOC1=O` (stereo partly drawn) [(1S,4aS,5R)-1,4a-Dimethyl-6-oxo-5-[2-(2-oxo-tetrahydro-furan-3-yl)-ethyl]-decahydro-naphthalene-1-carboxylic acid methyl ester], the negative-log IC50 (pIC50) was 5.59. Compared with the last molecule, the pIC50 is 0.27 log units higher.
`COC(=O)[C@@]1(C)CCC[C@@]2(C)C1CCC(=O)[C@@H]2CCC1=CCOC1=O` (stereo partly drawn) [(1S,4aS,5R)-1,4a-Dimethyl-6-oxo-5-[2-(2-oxo-2,5-dihydro-furan-3-yl)-ethyl]-decahydro-naphthalene-1-carboxylic acid methyl ester]: the pIC50 is 6.59. This pIC50 is 1.00 log units higher than that of the molecule before.
